Source: patent publication US20210236580A1, “Methods and Compositions for Mitigating Symptoms of Acute Respiratory Distress Syndrome” (Sytheon Ltd, priority 2020, published 2021)

Assays:
[1] = test system: IL-6; test: IL-6 release by urban dust-stimulated human keratinocytes (ELISA); type: cell-based; conditions: keratinocytes + 100 ug/ml urban dust, 24 hours; 100 μM (39 μg/ml)
Method: (§1) Human Keratinocyte Cell Culture: Human adult epidermal keratinocytes were grown using EpiLife Media (60 μM calcium) supplemented with 0.2% v/v bovine pituitary extract, 1 μg/ml recombinant human insulin-like growth factor-I, 0.18 µg/ml hydrocortisone, 5 μg/ml bovine transferrin, 0.2 ng/ml human epidermal growth factor. The cells were cultured at 37 C and 5% CO2. When a sufficient number of cells had been grown, they were seeded into 24-well plates and grown until confluent. Once confluent the cells were cultured overnight in hydrocortisone free EpiLife Media.
(§2) Preparation of Urban Dust & treatment: Urban dust was obtained from Sigma Chemicals (Standard Reference Material 1649b) and prepared at 10 mg/ml in hydrocortisone free EpiLife media. The urban dust solution was then sonicated for 10 minutes on ice. The test material was prepared in hydrocortisone free media supplemented with 100 ug/ml urban dust. […] Finally, one set of cells was not exposed to urban dust and was used to establish a baseline for each cytokine. […]
(§3) A series of standards was prepared and 100 μl of each of these standards was dispensed into two wells (duplicates) in the ELISA well plate. […] Once a sufficient level of color development had occurred, 50 μl of stop solution […]) was added to each well and the plate was read at 460 nm.

[2] = test system: interferon alpha; test: IFN-α in medium of LPS-exposed 3D ciliated airway tissues, sandwich ELISA; type: cell-based, human; conditions: first value column of Table 6, 100 μg/ml
Method: (§6) The respective test materials were stored at room temperature and samples were solubilized in sterile water (LPS, TC, EMB) or DMSO (DEX) at 20 mg/ml, afterward all further dilutions were made in sterile distilled water. All test materials except LPS were assayed at 100 μg ml (LPS was added topically at 1 μg/ml on Day 2). Furthermore, TC and EMB were tested at 50 μg/ml and in two combinations: 50 μg/ml:50 μg/ml and 25 μg/ml:25 μg/ml. Samples were added to the feeder chamber medium contacting the basal side of the tissues on Day 1, then also topically on Day 2, together with LPS. All experimental conditions were tested in triplicates.
(§7) Twenty-four hours after pre-incubation with the test substances, the tissue cultures were exposed to 1 μg/ml endotoxin LPS and the incubation was continued for 48 additional hours. Following the incubation, the experiment tissue culture-conditioned medium was stored at −20° C. until further processing. Subsequently, IFN-α and IFN-γ were quantified in the tissue culture-conditioned medium by sandwich ELISA.

[3] = test system: interferon gamma; test: IFN-γ in medium of LPS-exposed 3D ciliated airway tissues, sandwich ELISA; type: cell-based, human; conditions: second value column of Table 6, 100 μg/ml
Method: as §6, §7

[4] = test system: IL-6; test: IL-6 secretion in LPS-induced human bronchial epithelial cells (HBEpC), ELISA; type: cell-based; conditions: 48 hrs, 20 μM
Text: (§4) HBEpC provide an excellent model for all aspects of respiratory epithelial function and diseases, particularly those related to airway viral/bacterial infections, including tissue repair mechanisms, signaling changes and potential treatments relevant to lung injuries, mechanical and oxidative stress, inflammation, etc., including that arising from or associated with pulmonary diseases and smoking. In this study, the inflammatory cytokines IL-6 and IL-8 were induced through pretreatment of the HBEpC with lipopolysaccharide (Cat #L2630, Sigma, Saint Louis, Mo.). After 3 hours of treatment the test and control materials were added to the cultures which were then incubated at […] for 48 hrs. Thereafter the IL-8 and IL-6 levels of the test cultures were measured by ELISA.
(§5) Each experimental condition and control were assayed at least in six replicates and statistical significance assessed with paired Student test. In conducting the assay, total insoluble proteins were quantified to determine the effect of the test materials on cell proliferation according to the method described by Voigt (Voigt, W. Sulforhodamine B assay and chemosensitivity. Methods Mol Med. 2005; 110:39-48).

[5] = test system: IL-8; test: IL-8 secretion in LPS-induced human bronchial epithelial cells (HBEpC), ELISA; type: cell-based; conditions: 48 hrs
Text: as §4, §5

[6] = test system: IL-8; test: IL-8 release by urban dust-stimulated human keratinocytes (ELISA); type: cell-based; conditions: keratinocytes + 100 ug/ml urban dust, 24 hours; 100 μM (39 μg/ml)
Method: as §1, §2, §3

[7] = test system: IL-6; test: IL-6 in LPS-exposed 3D ciliated airway tissue, sandwich ELISA; type: cell-based, human; conditions: 1 μg/ml LPS, 48 hours, 100 μg/ml
Method: Further dilutions were made in sterile distilled water (dH2O). […] After three hours of incubation with test materials, cells were exposed to endotoxin—1 μg/ml LPS (lipopolysaccharides from Escherichia coli O113:H10, Associates of Cape Cod, East Falmouth, Mass.) and the incubation continued for an additional 48 hours.
The tissue cultures were then evaluated for IL-6 which was quantified by Sandwich Elisa. All colorimetric measurements were performed using Molecular Devices microplate reader MAX190 and SoftMax3.1.2PRO software. Statistical significance was assessed with paired Student test. Deviations of ≥20% as compared to water control with p values below 0.05 were considered statistically significant.

[8] = target: T1, IL-6R (Homo sapiens, UniProt P08887); conditions: Covid-19 patients, after treatment; preliminary findings; cited from earlier work
T1 construct: host or cells: endogenous receptor in Covid-19 patients (in vivo)
T1 sequence (P08887 20-468): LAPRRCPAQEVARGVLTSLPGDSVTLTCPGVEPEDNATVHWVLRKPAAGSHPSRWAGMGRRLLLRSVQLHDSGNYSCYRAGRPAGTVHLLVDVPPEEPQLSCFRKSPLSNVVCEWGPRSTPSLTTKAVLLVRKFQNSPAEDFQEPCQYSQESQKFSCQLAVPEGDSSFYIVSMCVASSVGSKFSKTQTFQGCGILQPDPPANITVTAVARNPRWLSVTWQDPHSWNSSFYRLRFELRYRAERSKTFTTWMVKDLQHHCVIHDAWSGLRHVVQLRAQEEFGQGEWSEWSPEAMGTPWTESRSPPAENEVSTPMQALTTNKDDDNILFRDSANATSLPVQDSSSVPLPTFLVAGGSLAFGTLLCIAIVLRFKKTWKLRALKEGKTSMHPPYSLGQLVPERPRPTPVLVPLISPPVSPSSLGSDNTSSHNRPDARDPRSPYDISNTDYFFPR

Compound | IL-6 [1] [pg/mL] | Interferon alpha [2] [pg/mL] | Interferon alpha [3] [pg/mL] | IL-6 (% control) [4] [% control] | IL-8 (% control) ([5]; 20 μM) | IL-8 (% control) ([5]; 40 μM) | IL-8 [6] [pg/mL] | IL-6 (% control) [7] [% control] | effect on fevers [8] | patients experiencing a reduced need for supplemental oxygen [8] [%]
C[C@@H]1C[C@H]2[C@@H]3CCC4=CC(=O)C=C[C@]4(C)[C@@]3(F)[C@@H](O)C[C@]2(C)[C@@]1(O)C(=O)CO [Dexamethasone] | 61.0 ± 13.9 | 6 | 20 | 77 | 98 | 91 | 86.9 ± 24.5 | 123 | – | –
Actemra: humanized anti-IL-6R monoclonal antibody | – | – | – | – | – | – | – | – | rapidly reduced fevers | 75
